In publication PMC7366380, “Discovery of a Potent and Selective Covalent Inhibitor and Activity-Based Probe for the Deubiquitylating Enzyme UCHL1, with Antifibrotic Activity” (Journal of the American Chemical Society, 2020):
Where “and” joins values, the source holds several entries; their conditions need not be identical. Equal values may be shown once. Blank lines part the entries; values can stand above or below the molecule they belong to.

Key:
[1] = molecular target: T1, DUBs and other proteins in HEK293 cells (Homo sapiens, UniProt Q86UV5); test: In-cell proteome-wide competitive ABPP, HEK293: other DUBs and proteins; settings: for Log2 reporter intensity values: USP48: DMSO substract (FC), replicates A-B; for Log2 reporter intensity values: USP48, DMSO subtracted
T1 sequence (Q86UV5 1-1035): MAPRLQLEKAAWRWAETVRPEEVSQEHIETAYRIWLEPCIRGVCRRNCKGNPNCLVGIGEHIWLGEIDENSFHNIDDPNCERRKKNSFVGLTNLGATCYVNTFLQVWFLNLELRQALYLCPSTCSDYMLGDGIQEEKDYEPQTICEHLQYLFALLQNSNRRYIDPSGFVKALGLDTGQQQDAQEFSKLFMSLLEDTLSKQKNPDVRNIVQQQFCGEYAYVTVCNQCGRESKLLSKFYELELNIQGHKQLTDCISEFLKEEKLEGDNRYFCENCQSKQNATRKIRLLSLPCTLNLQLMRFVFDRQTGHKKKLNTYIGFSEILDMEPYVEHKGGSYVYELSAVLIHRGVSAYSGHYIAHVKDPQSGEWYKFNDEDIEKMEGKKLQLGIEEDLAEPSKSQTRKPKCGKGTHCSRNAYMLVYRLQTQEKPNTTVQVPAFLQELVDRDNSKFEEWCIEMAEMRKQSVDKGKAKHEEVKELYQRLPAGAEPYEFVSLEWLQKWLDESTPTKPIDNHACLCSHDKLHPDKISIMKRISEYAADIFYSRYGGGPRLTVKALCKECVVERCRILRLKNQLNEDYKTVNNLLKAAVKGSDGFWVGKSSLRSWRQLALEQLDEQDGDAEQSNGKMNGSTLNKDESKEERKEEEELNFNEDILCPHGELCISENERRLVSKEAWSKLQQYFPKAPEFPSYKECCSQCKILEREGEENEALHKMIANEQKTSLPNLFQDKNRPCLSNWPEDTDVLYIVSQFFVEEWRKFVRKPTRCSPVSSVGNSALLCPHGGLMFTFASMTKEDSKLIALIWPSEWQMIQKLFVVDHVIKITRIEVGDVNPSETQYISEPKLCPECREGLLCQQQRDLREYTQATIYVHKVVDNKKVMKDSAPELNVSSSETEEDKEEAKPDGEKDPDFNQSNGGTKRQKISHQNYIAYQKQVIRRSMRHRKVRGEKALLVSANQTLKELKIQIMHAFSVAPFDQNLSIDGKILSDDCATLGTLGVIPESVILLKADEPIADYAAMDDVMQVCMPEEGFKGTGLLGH

[2] = molecular target: T2, DUBs and other proteins in HEK293 cells (Homo sapiens, UniProt Q96RU2); test: as above; settings: replicates A-C; for Log2 reporter intensity values: USP28: competition with ABP 2, DMSO substract (FC); for Log2 reporter intensity values: USP28, DMSO subtracted
T2 sequence (Q96RU2 1-1077): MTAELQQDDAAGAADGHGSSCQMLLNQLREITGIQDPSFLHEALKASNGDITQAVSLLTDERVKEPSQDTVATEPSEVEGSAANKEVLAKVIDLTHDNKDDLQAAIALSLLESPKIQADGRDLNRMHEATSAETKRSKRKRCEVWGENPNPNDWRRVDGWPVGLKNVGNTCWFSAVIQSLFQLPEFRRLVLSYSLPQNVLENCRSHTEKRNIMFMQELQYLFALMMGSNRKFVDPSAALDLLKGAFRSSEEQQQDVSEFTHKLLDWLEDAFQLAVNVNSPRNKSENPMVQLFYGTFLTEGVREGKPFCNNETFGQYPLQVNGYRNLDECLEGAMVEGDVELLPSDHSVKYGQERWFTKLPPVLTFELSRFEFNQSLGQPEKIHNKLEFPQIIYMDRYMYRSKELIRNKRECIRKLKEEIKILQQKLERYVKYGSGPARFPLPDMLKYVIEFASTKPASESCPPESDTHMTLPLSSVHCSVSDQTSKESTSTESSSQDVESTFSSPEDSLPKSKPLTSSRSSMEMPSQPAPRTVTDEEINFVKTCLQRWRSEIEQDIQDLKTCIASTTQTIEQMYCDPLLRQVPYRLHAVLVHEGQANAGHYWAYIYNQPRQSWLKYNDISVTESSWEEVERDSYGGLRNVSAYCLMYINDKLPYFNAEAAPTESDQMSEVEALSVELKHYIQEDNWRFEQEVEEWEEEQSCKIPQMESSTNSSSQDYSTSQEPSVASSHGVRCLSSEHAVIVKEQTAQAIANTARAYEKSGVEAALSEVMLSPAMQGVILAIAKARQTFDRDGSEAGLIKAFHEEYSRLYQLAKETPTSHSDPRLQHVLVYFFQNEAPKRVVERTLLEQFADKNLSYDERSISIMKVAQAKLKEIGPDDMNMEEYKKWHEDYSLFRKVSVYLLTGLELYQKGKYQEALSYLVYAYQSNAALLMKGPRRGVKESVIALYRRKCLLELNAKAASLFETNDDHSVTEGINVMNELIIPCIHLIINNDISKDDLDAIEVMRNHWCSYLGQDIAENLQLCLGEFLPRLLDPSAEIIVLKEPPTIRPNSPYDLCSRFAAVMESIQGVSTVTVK

Log2 reporter intensity values: USP48 ([1]; 1 at 1 μM, competition with ABP 2): 1.114 and 0.9292
Log2 reporter intensity values: USP48 ([1]; 1 at 4 μM, competition with ABP 2): 1.018 and 0.949
Log2 reporter intensity values ([1]; 1_1 μM, replicates A-B (C NaN)): 0.113 and -0.07208
Log2 reporter intensity values ([1]; 1_4 μM, replicates A-B (C NaN)): 0.01672 and -0.0523
Log2 reporter intensity values ([1]; 1 at 1 μM, replicates A-C): 0.1561 and -0.1059
Log2 reporter intensity values ([1]; 1 at 4 μM, replicates A-C): 0.02574 and -0.07554
Log2 reporter intensity values: USP28 ([2]; 1 at 1 μM): 0.9959 and 0.8739 and 1.601
Log2 reporter intensity values: USP28 ([2]; 1 at 4 μM): 1.351 and 1.583 and 1.105
Log2 reporter intensity values ([2]; 1_1 μM): -0.04385 and -0.1658 and 0.561
Log2 reporter intensity values ([2]; 1_4 μM): 0.3117 and 0.5434 and 0.06533
Log2 reporter intensity values ([2]; 1 at 1 μM): -0.005982 and -0.1944 and 0.6787
Log2 reporter intensity values ([2]; 1 at 4 μM): 0.4345 and 0.6627 and 0.1441
SMILES: N#CN1CCC[C@H]1C(=O)N1CCc2c(-c3c[nH]c4ncccc34)cccc21 [Compound 1]

SMILES: CC(=O)O/N=C1\C(=O)N(Cc2cc(Cl)ccc2Cl)c2ccc(Cl)cc21 [LDN]
Log2 reporter intensity values: USP48 ([1]; LDN at 5 μM, competition with ABP 2): 1.048 and 1.119
Log2 reporter intensity values: USP48 ([1]; LDN at 25 μM, competition with ABP 2): 1.118 and 1.08
Log2 reporter intensity values ([1]; LDN at 5 μM, replicates A-C): 0.0673 and 0.1618
Log2 reporter intensity values ([1]; LDN at 25 μM, replicates A-C): 0.1604 and 0.1117
Log2 reporter intensity values ([1]; LDN_5 μM, replicates A-B (C NaN)): 0.04647 and 0.1174
Log2 reporter intensity values ([1]; LDN_25 μM, replicates A-B (C NaN)): 0.1163 and 0.0792
Log2 reporter intensity values: USP28 ([2]; LDN at 5 μM): 1.021 and 0.7867 and 1.08
Log2 reporter intensity values: USP28 ([2]; LDN at 25 μM): 0.7474 and 0.7545 and 1.193
Log2 reporter intensity values ([2]; LDN at 5 μM): 0.03026 and -0.3461 and 0.1114
Log2 reporter intensity values ([2]; LDN at 25 μM): -0.42 and -0.4063 and 0.2545
Log2 reporter intensity values ([2]; LDN_5 μM): -0.01852 and -0.253 and 0.04055
Log2 reporter intensity values ([2]; LDN_25 μM): -0.2923 and -0.2852 and 0.1532

Log2 reporter intensity values: USP48 ([1]; 20 nM ABP 2 alone): 0.9588 and 0.9788
Log2 reporter intensity values ([1]; 20 nM ABP 2, replicates A-B (C NaN)): -0.04252 and -0.02245
Log2 reporter intensity values ([1]; 20 nM ABP 2, replicates A-C): -0.06076 and -0.03088
SMILES: C#Cc1cnc2[nH]cc(-c3cccc4c3CCN4C(=O)[C@@H]3CCCN3C#N)c2c1 [Compound 2]

Log2 reporter intensity values: USP48 ([1]; 3 at 1 μM, competition with ABP 2): 1.063 and 0.8844
Log2 reporter intensity values: USP48 ([1]; 3 at 4 μM, competition with ABP 2): 0.8635 and 1.157
Log2 reporter intensity values ([1]; 3_1 μM, replicates A-B (C NaN)): 0.06169 and -0.1169
Log2 reporter intensity values ([1]; 3_4 μM, replicates A-B (C NaN)): -0.1378 and 0.156
Log2 reporter intensity values ([1]; 3 at 1 μM, replicates A-C): 0.08809 and -0.1773
Log2 reporter intensity values ([1]; 3 at 4 μM, replicates A-C): -0.2118 and 0.2108
Log2 reporter intensity values: USP28 ([2]; 3 at 1 μM): 1.351 and 1.11 and 0.8433
Log2 reporter intensity values: USP28 ([2]; 3 at 4 μM): 0.6356 and 0.4265 and 0.9775
Log2 reporter intensity values ([2]; 3_1 μM): 0.3111 and 0.07023 and -0.1965
Log2 reporter intensity values ([2]; 3_4 μM): -0.4041 and -0.6132 and -0.06225
Log2 reporter intensity values ([2]; 3 at 1 μM): 0.4339 and 0.1505 and -0.246
Log2 reporter intensity values ([2]; 3 at 4 μM): -0.6539 and -1.229 and -0.03288
SMILES: N#CN1CCC[C@@H]1C(=O)N1CCc2c(-c3c[nH]c4ncccc34)cccc21 [Compound 3]
